Experiment [1] addresses T1, SorC (Penicillium rubens, UniProt B6HN76).
T1 construct: monomer
The experiment can be described thus: X-ray crystal structure, […] Å. The format is binding. The conditions noted are these: flavin out conformation; without sorbicillin.

For experiment [2], the target named is T2, SorD (Penicillium rubens, UniProt B6HNK6).
T2 construct: C-terminal His6 tag, endogenous signal peptide (residues 5-22 partly seen in structure), secreted from Aspergillus niger; N-glycosylated; ~50 kDa theoretical, 61 kDa measured; monomer; FAD covalent at His78
T2 sequence (B6HNK6 whole entry, the tested form may be a part): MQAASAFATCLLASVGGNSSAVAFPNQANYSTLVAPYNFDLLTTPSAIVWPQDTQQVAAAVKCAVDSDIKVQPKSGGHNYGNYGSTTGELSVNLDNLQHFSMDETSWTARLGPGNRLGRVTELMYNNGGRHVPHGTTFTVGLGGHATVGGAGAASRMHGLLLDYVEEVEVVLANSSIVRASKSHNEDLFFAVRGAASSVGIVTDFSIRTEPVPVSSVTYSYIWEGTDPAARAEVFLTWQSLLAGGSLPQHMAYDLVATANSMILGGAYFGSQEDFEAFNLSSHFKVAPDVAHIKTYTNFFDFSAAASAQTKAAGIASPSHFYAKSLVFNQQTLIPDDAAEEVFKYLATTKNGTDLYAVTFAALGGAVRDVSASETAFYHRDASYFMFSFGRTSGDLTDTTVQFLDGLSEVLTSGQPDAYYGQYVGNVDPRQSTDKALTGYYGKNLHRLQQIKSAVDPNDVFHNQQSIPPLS
Nature of the experiment: X-ray crystal structure, […] Å. Conditions: covalent; attached to His78; without sorbicillin. In kind it is binding.

Experiment [3] has as its target T1, SorC. The experiment can be described thus: enzyme kinetics. In kind it is biochemical. The conditions noted are these: coenzyme; hydroxylation of sorbicillin.
The target of experiment [4] is T2, SorD. Nature of the experiment: microscale thermophoresis. The format is binding.
The target in experiment [5] is T1, SorC. Nature of the experiment: microscale thermophoresis. The format is binding.
Experiment [6] concerns the target T3, SorC (Penicillium rubens, UniProt B6HN76, R201A).
T3 construct: monomer
Nature of the experiment: microscale thermophoresis. In kind it is binding. (In general: In MST a laser heats a spot of the sample, and binding alters the fluorescence response.)

From publication PMC11934079, “Structural and Mechanistic Characterization of the Flavin-Dependent Monooxygenase and Oxidase Involved in Sorbicillinoid Biosynthesis” (ACS Chemical Biology, 2025) come the findings set out here.

Structures are written as SMILES.

T1 sequence (B6HN76 whole entry): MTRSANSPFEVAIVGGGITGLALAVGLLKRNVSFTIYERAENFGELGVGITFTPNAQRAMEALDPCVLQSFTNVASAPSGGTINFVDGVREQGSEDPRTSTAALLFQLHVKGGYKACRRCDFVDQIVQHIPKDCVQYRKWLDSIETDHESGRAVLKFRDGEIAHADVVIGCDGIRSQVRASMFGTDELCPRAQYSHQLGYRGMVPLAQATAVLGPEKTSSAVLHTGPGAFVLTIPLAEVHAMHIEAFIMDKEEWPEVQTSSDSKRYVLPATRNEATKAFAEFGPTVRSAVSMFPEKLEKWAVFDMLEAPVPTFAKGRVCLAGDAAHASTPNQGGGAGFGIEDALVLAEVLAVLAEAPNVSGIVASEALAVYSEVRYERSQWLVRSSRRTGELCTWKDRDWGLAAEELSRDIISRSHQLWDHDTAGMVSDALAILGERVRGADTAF
T3 sequence (B6HN76 whole entry R201A): as the sequence (B6HN76 whole entry) above, with R201A counted along it

Consider `Cc1cc2nc3c(=O)[nH]c(=O)nc-3n(C[C@H](O)[C@H](O)[C@H](O)COP(=O)(O)OP(=O)(O)OC[C@H]3O[C@@H](n4cnc5c(N)ncnc54)[C@H](O)[C@@H]3O)c2cc1C` [FAD], for which, on SorC [1], the “X-ray crystal structure, 1.4 Å” value is recorded as “SorC without sorbicillin shows that the oxidized flavin is already in the out conformation”. Besides, the “X-ray crystal structure, 1.55 Å” value at SorD [2] is reported as “SorD, where the FAD is covalently attached to residue His78”.

Turning to `NC(=O)C1=CN([C@@H]2O[C@H](COP(=O)(O)OP(=O)(O)OC[C@H]3O[C@@H](n4cnc5c(N)ncnc54)[C@H](O)[C@@H]3O)[C@@H](O)[C@H]2O)C=CC1` [NADH], the catalytic efficiency entry at SorC [3] is “both NADH and NADPH were accepted as coenzymes, with NADH having a higher overall catalytic efficiency”.

Take `NC(=O)C1=CN([C@@H]2O[C@H](COP(=O)(O)OP(=O)(O)OC[C@H]3O[C@@H](n4cnc5c(N)ncnc54)[C@H](OP(=O)(O)O)[C@@H]3O)[C@@H](O)[C@H]2O)C=CC1` [NADPH]: at SorC [3], the catalytic efficiency entry is “both NADH and NADPH were accepted as coenzymes”.

As usually defined, the Kd is the constant that tells how readily two partners part at equilibrium. The low end stands for higher affinity, the high end for lower affinity. As for `C/C=C/C=C/C(=O)c1cc(C)c(O)c(C)c1O` [compound 1, sorbicillin], the Kd amounted to 1.2 ± 1.6 µM on SorD [4], 0.94 ± 0.093 µM on SorC [5] and 12.6 ± 9.7 µM on SorC [6].
